# Read-outs that look alike come from different tables or passages of the source.
# What was measured:
# [1] = tested on: E. coli DH10B(pBAD-tetM), expressing tet(M); assay: MIC against recombinant E. coli expressing tet(M); assay type: cell-based; conditions: for MIC: Escherichia coli; for Ratio (TetM induced / Uninduced): ratio of MICs; for Effect of expression of (tet)M on activity: result in words
# From the text: (§1) Constructs were transformed into E. coli DH10B for expression. Recombinant strains were pre-induced under optimized conditions with L-arabinose prior to use as inocula in CLSI standardized MIC assays.
# [2] = tested on: E. coli DH10B(pBAD-tetK), expressing tet(K); assay: MIC against recombinant E. coli expressing tet(K); assay type: cell-based; conditions: for MIC: Escherichia coli; for MIC ratio, TetK induced to uninduced: ratio of TetK induced to uninduced MIC; for Effect of expression of (tet)K on activity: result in words
# From the text: as §1
# [3] = tested on: E. coli S30 extract system, coupled in vitro transcription/translation, firefly luciferase readout; assay: In vitro transcription/translation (TnT) assay; assay type: biochemical; conditions: for IC50, in vitro transcription/translation system: E. coli S30 extract, luciferase readout
# [4] = tested on: Streptococcus pneumoniae SP106, ATCC 49619; assay: MIC assay, SP106; assay type: cell-based
# [5] = tested on: Staphylococcus aureus SA101, ATCC 29213, MSSA; assay: MIC assay, SA101; assay type: cell-based
# [6] = tested on: Staphylococcus aureus SA161, HA-MRSA, tetracycline-resistant, tet(M); assay: MIC assay, SA161; assay type: cell-based; conditions: Table 8, read-out: MIC S. aureus MRSA, tetM
# [7] = tested on: Escherichia coli EC107, ATCC 25922; assay: MIC assay, EC107; assay type: cell-based; conditions: ATCC25922, Table 8, read-out: MIC E. coli ATCC 25922
# [8] = tested on: Staphylococcus aureus SA158, tetracycline-resistant tet(K); assay: MIC assay, SA158; assay type: cell-based; conditions: Table 8, read-out: MIC S. aureus tetK
# [9] = tested on: Enterococcus faecalis EF159, tetracycline-resistant, tet(M); assay: MIC assay, EF159; assay type: cell-based
# [10] = tested on: Enterococcus faecalis EF103, ATCC 29212; assay: MIC assay, EF103; assay type: cell-based; conditions: Enterococcus faecalis, ATCC29212; Table 8; read-out: MIC E. faecalis ATCC 29212
# [11] = tested on: Streptococcus pneumoniae SP160, tetracycline-resistant, tet(M); assay: MIC assay, SP160; assay type: cell-based; conditions: Table 8, read-out: MIC S. pneumoniae tetM
# [12] = tested on: Escherichia coli EC155, tetracycline-resistant, tet(A); assay: MIC assay, EC155; assay type: cell-based
# [13] = tested on: E. faecalis clinical isolates; assay: MIC50, MIC90 and MIC range, panel of clinical isolates (Example 20); assay type: cell-based; conditions: 24 isolates, in µg/mL
# Description: (§2) The assays were run as follows.
# (§3) Both values, as well as the MIC range (the lowest and highest MIC value observed for a collection of organisms), were determined for the isolates listed in Table 3.
# [14] = tested on: S. aureus clinical isolates; assay: as above; assay type: cell-based; conditions: MRSA, 30 isolates; in µg/mL
# Description: as §2, §3
# [15] = tested on: S. pneumoniae clinical isolates; assay: as above; assay type: cell-based; conditions: 19 isolates, in µg/mL
# Description: as §2, §3
# [16] = tested on: S. aureus ATCC 13709 (Smith); assay: Mouse systemic infection model, S. aureus septicemia; conditions: mouse septicemia, S. aureus ATCC 13709, intravenous treatment one hour post-challenge, survival after 48 hours
# [17] = tested on: S. aureus strains collected from various geographical sources; assay: MIC50 and MIC90 analysis (Example 22)
# Description: (§4) Frozen bacterial strains were thawed and subcultured onto Mueller Hinton Broth (MHB) or other appropriate media (Streptococcus requires blood and Haemophilus requires hemin and NAD). Following incubation overnight, the strains were subcultured onto Mueller Hinton Agar and again incubated overnight. […] Isolated colonies were selected to prepare a starting inoculum equivalent to a 0.5 McFarland standard. […] Antibiotics (stored frozen, thawed and used within 3 hours of thawing) and compounds were further diluted to the desired working concentrations.
# (§5) The assays were run as follows. Fifty μL of MHB was added to wells 2-12 of a 96-well plate. One hundred μL of appropriately diluted antibiotic or compound was added to well 1. Fifty μL of antibiotics or compound was removed from well 1 and added to well 2 and the contents of well 2 mixed by pipetting up and down five times. Fifty μL of the mixture in well 2 was removed and added to well 3 and mixed as above. Serial dilutions were continued in the same manner through well 12. Fifty μL was removed from well 12 so that all contained 50 μL. Fifty μL of the working inoculum was then added to all test wells. A growth control well was prepared by adding 50 μL of working inoculum and 50 μL of MHB to an empty well. The plates were then incubated at 37° C. overnight, removed from the incubator and each well was read on a plate reading mirror. The lowest concentration (MIC) of test compound that inhibited the growth of the bacteria was recorded.
# (§6) MIC, MIC50 and MIC90 values were determined according to CLSI methodology. S. pneumoniae and H. influenzae isolates were obtained from Eurofins-Medinet and are recent clinical isolates. S. aureus strains were collected from various geographical sources.
# E. coli ATCC 25922 = assay: Mouse systemic infection model, E. coli septicemia; conditions: mouse septicemia, E. coli ATCC 25922, treatment one hour post-challenge, survival after 48 hours
# [18] = tested on: Staphylococcus aureus SA100, ATCC 13709, MSSA, Smith strain; assay: MIC assay, SA100; assay type: cell-based; conditions: Table 12, read-out: MIC S. aureus ATCC 13709
# [19] = tested on: H. influenzae isolates (Eurofins-Medinet, recent clinical isolates); assay: MIC50 and MIC90 analysis (Example 22)
# Description: as §4, §5, §6
# [20] = ATCC49619, Table 8, read-out: MIC S. pneumoniae ATCC 49619
# [21] = Table 8, read-out: MIC S. aureus ATCC 29213
# [22] = Table 8, read-out: MIC E. faecalis tetM
# [23] = Table 8, read-out: MIC E. coli tetA
compound,measurement,setting,value
"NCC[C@H](O)C(=O)N[C@@H]1C[C@H](N)[C@@H](O[C@H]2O[C@H](CN)[C@@H](O)[C@H](O)[C@H]2O)[C@H](O)[C@H]1O[C@H]1O[C@H](CO)[C@@H](O)[C@H](N)[C@H]1O [Amikacin, amikacin, reference compound]",MIC,"[1]; read-out: MIC, TetM induced",4 µg/mL
same,MIC,"[1]; read-out: MIC, Uninduced",4 µg/mL
same,Ratio (TetM induced / Uninduced),[1],1
same,Effect of expression of (tet)M on activity,[1],unaffected
same,MIC,"[2]; read-out: MIC, TetK Induced",8 µg/mL
same,MIC,"[2]; read-out: MIC, Uninduced",8 µg/mL
same,"MIC ratio, TetK induced to uninduced",[2],1
same,Effect of expression of (tet)K on activity,[2],unaffected
"CO/N=C(\C(=O)N[C@@H]1C(=O)N2C(C(=O)O)=C(CSc3nc(=O)c(=O)[nH]n3C)CS[C@H]12)c1csc(N)n1 [Ceftriaxone, ceftriaxone, reference compound]",MIC,"[1]; read-out: MIC, TetM induced",0.125 µg/mL
same,MIC,"[1]; read-out: MIC, Uninduced",0.0625 µg/mL
same,Ratio (TetM induced / Uninduced),[1],2
same,Effect of expression of (tet)M on activity,[1],unaffected
same,MIC,"[2]; read-out: MIC, TetK Induced",0.25 µg/mL
same,MIC,"[2]; read-out: MIC, Uninduced",0.125 µg/mL
same,"MIC ratio, TetK induced to uninduced",[2],2
same,Effect of expression of (tet)K on activity,[2],unaffected
CCCc1nc(Cl)c2c(c1O)C(=O)C1=C(O)[C@]3(O)C(=O)C(C(N)=O)=C(O)[C@@H](N(C)C)[C@@H]3C[C@@H]1C2 [Compound 104],TnT IC50,[3],5.3 µg/mL
CCCNc1nc(F)c2c(c1O)C(=O)C1=C(O)[C@]3(O)C(=O)C(C(N)=O)=C(O)[C@@H](N(C)C)[C@@H]3C[C@@H]1C2 [Compound 114],TnT IC50,[3],2.8 µg/mL
CN(C)CCCNc1nc(Cl)c2c(c1O)C(=O)C1=C(O)[C@]3(O)C(=O)C(C(N)=O)=C(O)[C@@H](N(C)C)[C@@H]3C[C@@H]1C2 [Compound 119],TnT IC50,[3],0.58 µg/mL
same,"IC50, in vitro transcription/translation system",[3],sub-μg/ml
CN(C)[C@@H]1C(O)=C(C(N)=O)C(=O)[C@@]2(O)C(O)=C3C(=O)c4c(O)c(NC(=O)CNC(C)(C)C)nc(F)c4C[C@H]3C[C@@H]12 [Compound 120],TnT IC50,[3],0.36 µg/mL
same,"IC50, in vitro transcription/translation system",[3],sub-μg/ml
CN(C)[C@@H]1C(O)=C(C(N)=O)C(=O)[C@@]2(O)C(O)=C3C(=O)c4c(O)cnc(Cl)c4C[C@H]3C[C@@H]12 [Compound 123],MIC,[4]; [20],1 µg/mL
same,MIC,[5]; [21],1 µg/mL
same,MIC,[6],32 µg/mL
same,MIC,[7],2 µg/mL
same,MIC,[8],32 µg/mL
same,MIC,[9]; [22],> 32 µg/mL
same,MIC,[10],32 µg/mL
same,MIC,[11],32 µg/mL
same,MIC,[12]; [23],> 32 µg/mL
CN(C)[C@@H]1C(O)=C(C(N)=O)C(=O)[C@@]2(O)C(O)=C3C(=O)c4c(O)c(NCC(F)(F)F)nc(Cl)c4C[C@H]3C[C@@H]12 [Compound 124],MIC,"[1]; read-out: MIC, TetM induced",16 µg/mL
same,MIC,"[1]; read-out: MIC, Uninduced",4 µg/mL
same,Ratio (TetM induced / Uninduced),[1],4
same,TnT IC50,[3],>4.5 µg/mL
same,MIC,"[2]; read-out: MIC, TetK Induced",16 µg/mL
same,MIC,"[2]; read-out: MIC, Uninduced",8 µg/mL
same,"MIC ratio, TetK induced to uninduced",[2],2
same,MIC Range,[13],0.008-4
same,MIC Range,[14],0.25-4
same,MIC Range,[15],<=0.016-8
CN(C)[C@@H]1C(O)=C(C(N)=O)C(=O)[C@@]2(O)C(O)=C3C(=O)c4c(O)c(N)nc(F)c4C[C@H]3C[C@@H]12 [Compound 125],TnT IC50,[3],0.93 µg/mL
same,"IC50, in vitro transcription/translation system",[3],sub-μg/ml
CN(C)[C@@H]1C(O)=C(C(N)=O)C(=O)[C@@]2(O)C(O)=C3C(=O)c4c(O)c(NC(=O)CNC(C)(C)C)nc(Cl)c4C[C@H]3C[C@@H]12 [Compound 132],TnT IC50,[3],0.78 µg/mL
same,"IC50, in vitro transcription/translation system",[3],sub-μg/ml
CCCc1nc(N(C)C)c2c(c1O)C(=O)C1=C(O)[C@]3(O)C(=O)C(C(N)=O)=C(O)[C@@H](N(C)C)[C@@H]3C[C@@H]1C2 [Compound 141],MIC,"[1]; read-out: MIC, TetM induced",32 µg/mL
same,MIC,"[1]; read-out: MIC, Uninduced",32 µg/mL
same,Ratio (TetM induced / Uninduced),[1],1
same,MIC,"[2]; read-out: MIC, TetK Induced",32 µg/mL
same,MIC,"[2]; read-out: MIC, Uninduced",> 32 µg/mL
same,MIC Range,[13],1-8
same,MIC Range,[14],2-4
same,MIC Range,[15],0.25-8
CN(C)[C@@H]1C(O)=C(C(N)=O)C(=O)[C@@]2(O)C(O)=C3C(=O)c4c(O)cnc(F)c4C[C@H]3C[C@@H]12 [Compound 144],MIC,[4]; [20],0.016 µg/mL
same,MIC,[5]; [21],0.031 µg/mL
same,MIC,[6],8 µg/mL
same,MIC,[7],0.25 µg/mL
same,MIC,[8],8 µg/mL
same,MIC,[9]; [22],32 µg/mL
same,MIC,[10],4 µg/mL
same,MIC,[11],8 µg/mL
same,MIC,[12]; [23],> 32 µg/mL
CN(C)[C@@H]1C(O)=C(C(N)=O)C(=O)[C@@]2(O)C(O)=C3C(=O)c4c(O)c(N)nc(Cl)c4C[C@H]3C[C@@H]12 [Compound 147],TnT IC50,[3],1.1 µg/mL
"C[C@H]1COc2c(N3CCN(C)CC3)c(F)cc3c(=O)c(C(=O)O)cn1c23 [Levofloxacine, levofloxacin, reference compound]",MIC,"[1]; read-out: MIC, TetM induced",0.0156 µg/mL
same,MIC,"[1]; read-out: MIC, Uninduced",0.0156 µg/mL
same,Ratio (TetM induced / Uninduced),[1],1
same,MIC,"[2]; read-out: MIC, TetK Induced",0.0156 µg/mL
same,MIC,"[2]; read-out: MIC, Uninduced",0.0156 µg/mL
same,"MIC ratio, TetK induced to uninduced",[2],1
"CN(C)[C@@H]1C(O)=C(C(N)=O)C(=O)[C@@]2(O)C(O)=C3C(=O)c4c(O)cccc4[C@@](C)(O)[C@H]3C[C@@H]12 [Tetracycline, tetracycline, reference compound]",MIC,[4]; [20],0.063 µg/mL
same,MIC,"[4]; ATCC49619, Table 9, read-out: MIC S. pneum ATCC 49619",0.25 µg/mL
same,MIC,[5]; [21],0.25 µg/mL
same,MIC,"[5]; Table 9, read-out: MIC S. aureus ATCC 29213",0.5 µg/mL
same,MIC,[6],64 µg/mL
same,MIC,"[1]; read-out: MIC, TetM induced",> 32 µg/mL
same,PD50,[16],0.35 mg/kg
same,MIC Range,[17]; S. aureus (n = 20),0.06 to 32 µg/mL
same,MIC50,[17]; Staphylococcus aureus,0.13 µg/mL
same,MIC90,[17]; Staphylococcus aureus,0.25 µg/mL
same,MIC,"[2]; read-out: MIC, TetK Induced",> 32 µg/mL
same,PD50,E. coli ATCC 25922,17.0 mg/kg
same,MIC,[18],0.5 µg/mL
same,MIC,[9]; [22],64 µg/mL
same,MIC,"[9]; Table 9, read-out: MIC E. faecalis EF159 (tet)M",> 32 µg/mL
same,MIC Range,[19]; H. influenzae (n = 12),0.25 to 16 µg/mL
same,MIC50,[19]; Haemophilus influenzae,0.5 µg/mL
same,MIC,[10],8 µg/mL
same,MIC,[12]; [23],> 64 µg/mL
same,MIC,"[12]; Table 9, read-out: MIC E. coli EC155 (tet)A",> 32 µg/mL
"CN(C)c1ccc(O)c2c1C[C@H]1C[C@H]3[C@H](N(C)C)C(O)=C(C(N)=O)C(=O)[C@@]3(O)C(O)=C1C2=O [minocycline, reference compound]",MIC,[4]; [20],≤ 0.016 µg/mL
same,MIC,[5]; [21],0.06 µg/mL
same,MIC,[6],8 µg/mL
same,MIC,[7],0.5 µg/mL
same,MIC,[8],0.03 µg/mL
same,MIC,[9]; [22],16 µg/mL
same,MIC,[11],2 µg/mL
same,MIC,[12]; [23],8 µg/mL

# From patent US8828988B2 (Tetraphase Pharmaceuticals, Inc., priority 2009, dated 2014)
